Data reported in paper PMC3475447 (Bioscience Reports, 2012).

Target: T1, ATPBD of A. fulgidus CopB (Strep-tagged) (Archaeoglobus fulgidus, UniProt O30085)
T1 sequence (O30085 372-636): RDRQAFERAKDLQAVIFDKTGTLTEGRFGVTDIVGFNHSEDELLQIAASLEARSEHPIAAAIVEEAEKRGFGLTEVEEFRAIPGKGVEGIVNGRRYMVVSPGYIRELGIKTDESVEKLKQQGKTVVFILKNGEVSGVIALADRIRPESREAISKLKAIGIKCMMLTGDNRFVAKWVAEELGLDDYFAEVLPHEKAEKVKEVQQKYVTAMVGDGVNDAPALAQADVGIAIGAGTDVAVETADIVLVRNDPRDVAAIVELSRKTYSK
Experiment: biochemical

SMILES: Nc1ncnc2c1ncn2[C@@H]1O[C@H](COP(=O)(O)OP(=O)(O)OP(=O)(O)O)[C@@H](O)[C@H]1O [ATP]
- Kd: 34 ± 2 µM
